Laboratory results as given in patent publication US9545105B2, “1-(heterocyclic carbonyl) piperidines” (BAYER INTELLECTUAL PROPERTY GMBH, priority 2010, dated 2017).
Where “and” joins values, the source holds several entries; their conditions need not be identical. Equal entries are not always repeated.

Tests used:
[1] = log P by HPLC on reversed-phase column (C 18), EEC Directive 79/831 Annex V.A8; assay type: physicochemical; details: HPLC on reversed-phase column (C 18); 40° C.; 0.1% aqueous formic acid and acetonitrile; linear gradient 10% to 90% acetonitrile
Outline: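 40° C; 0.1% aq. formic acid/acetonitrile, linear gradient 10→90% acetonitrile. Calibration: unbranched alkan-2-ones (C3–C16), known log P. log P from retention time, linear interpolation between neighbouring alkanones. lambda-max from UV 200–400 nm at peak maxima.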

Alternaria solani = experiment: In vivo preventive test on Alternaria solani (tomato); details: 500 ppm of active ingredient, evaluated 7 days after inoculation
Experimental: Solvent: 49 parts by weight of N,N-dimethylformamide Emulsifier: 1 part by weight of Alkylarylpolyglycolether To produce a suitable preparation of active compound, 1 part by weight of active compound is mixed with the stated amounts of solvent and emulsifier, and the concentrate is diluted with water to the desired concentration. To test for preventive activity, young plants are sprayed with the preparation of active compound at the stated rate of application. One day after this treatment, the plants are inoculated with an aqueous spore suspension of Alternaria solani. The plants remain for one day in an incubation cabinet at approximately 22° C. and a relative atmospheric humidity of 100%. Then the plants are placed in an incubation cabinet at approximately 20° C. and a relative atmospheric humidity of 96%. The test is evaluated 7 days after the inoculation. 0% means an efficacy which corresponds to that of the untreated control while an efficacy of 100% means that no disease is observed.

Sphaerotheca fuliginea = experiment: In vivo preventive test on Sphaerotheca fuliginea (cucumber); details: 500 ppm of active ingredient, evaluated 7 days after inoculation
Experimental: Solvent: 49 parts by weight of N,N-dimethylformamide Emulsifier: 1 part by weight of Alkylarylpolyglycolether To produce a suitable preparation of active compound, 1 part by weight of active compound is mixed with the stated amounts of solvent and emulsifier, and the concentrate is diluted with water to the desired concentration. To test for preventive activity, young plants are sprayed with the preparation of active compound at the stated rate of application. One day after this treatment, the plants are inoculated with an aqueous spore suspension of Sphaerotheca fuliginea. Then the plants are placed in a greenhouse at approximately 23° C. and a relative atmospheric humidity of approximately 70%. The test is evaluated 7 days after the inoculation. 0% means an efficacy which corresponds to that of the untreated control, while an efficacy of 100% means that no disease is observed.

Pyrenophora teres = experiment: In vivo preventive test on Pyrenophora teres (barley); details: 500 ppm of active ingredient, evaluated 7-9 days after inoculation
Outline: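 Young barley plants sprayed with compound in DMF/alkylaryl polyglycol ether emulsion; inoculated with P. teres spores one day later. 48 h at 22 °C, 100% humidity, then greenhouse ~20 °C, ~80% humidity; efficacy scored 7-9 days post-inoculation, 0% = untreated, 100% = no disease.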

Septoria tritici = experiment: In vivo preventive test on Septoria tritici (wheat); details: 500 ppm of active ingredient, evaluated 21 days after inoculation
Experimental: Solvent: 49 parts by weight of N,N-dimethylacetamide Emulsifier: 1 part by weight of alkylaryl polyglycol ether To produce a suitable preparation of active compound, 1 part by weight of active compound or active compound combination is mixed with the stated amounts of solvent and emulsifier, and the concentrate is diluted with water to the desired concentration. To test for preventive activity, young plants are sprayed with the preparation of active compound or active compound combination at the stated rate of application. After the spray coating has been dried, the plants are sprayed with a spore suspension of Septoria tritici. The plants remain for 48 hours in an incubation cabinet at approximately 20° C. and a relative atmospheric humidity of approximately 100% and afterwards for 60 hours at approximately 15° C. in a translucent incubation cabinet at a relative atmospheric humidity of approximately 100%. The plants are placed in the greenhouse at a temperature of approximately 15° C. and a relative atmospheric humidity of approximately 80%. The test is evaluated 21 days after the inoculation. 0% means an efficacy which corresponds to that of the untreated control, while an efficacy of 100% means that no disease is observed.

logP [1]	Structure (SMILES)	Efficacy (Alternaria solani)	Efficacy (Sphaerotheca fuliginea)	Efficacy (Pyrenophora teres)	Efficacy (Septoria tritici)
3.21	Cc1ccccc1C1CCCCN1C(=O)c1c(C(F)F)nn(C)c1F (stereo not drawn) [Example 6]	100%	95%	100%	
3.81	Cc1ccccc1C1CCCCN1C(=S)c1c(C(F)F)nn(C)c1F (stereo not drawn) [Example 7]	95%	100%	100%	
3.64	Cc1ccc(C2CCCCN2C(=O)c2c(C(F)F)nn(C)c2F)cc1C (stereo not drawn) [Example 9]	95%	93%	100%	
2.89	Cc1nn(C)c(F)c1C(=O)N1CCCCC1c1ccccc1Cl (stereo not drawn) [Example 36]	95%	89%	100%	80%
3.19	CCc1nn(C)c(F)c1C(=O)N1CCCCC1c1ccccc1Cl (stereo not drawn) [Example 37]	95%	70%	95%	80%
3.31	Cn1nc(C(F)F)c(C(=O)N2CCCCC2c2ccccc2Cl)c1F (stereo not drawn) [Example 41]	100%	100%	100%	
4.00	Cn1nc(C(F)F)c(C(=S)N2CCCCC2c2ccccc2Cl)c1F (stereo not drawn) [Example 42]	100%	100%	100%	
3.31	CCc1nn(C)c(F)c1C(=O)N1CCCCC1c1cccc(Cl)c1 (stereo not drawn) [Example 43]	95%		100%	80%
3.39	Cn1nc(C(F)F)c(C(=O)N2CCCCC2c2cccc(Cl)c2)c1F (stereo not drawn) [Example 48]	100%	100%	100%	
4.06	Cn1nc(C(F)F)c(C(=S)N2CCCCC2c2cccc(Cl)c2)c1F (stereo not drawn) [Example 49]	100%	98%	100%	
2.98	Cc1nn(C)c(F)c1C(=O)N1CCCCC1c1ccc(Cl)cc1 (stereo not drawn) [Example 51]	95%		100%	100%
3.46	Cn1nc(C(F)F)c(C(=O)N2CCCCC2c2ccc(Cl)cc2)c1F (stereo not drawn) [Example 56]	100%	79%	100%	
4.16	Cn1nc(C(F)F)c(C(=S)N2CCCCC2c2ccc(Cl)cc2)c1F (stereo not drawn) [Example 57]	100%	70%	100%	
2.56	COc1cc(OC)cc(C2CCCCN2C(=O)c2c(C)nn(C)c2F)c1 (stereo not drawn) [Example 68]	80%	83%	95%	
3.39	Cc1nn(C)c(F)c1C(=O)N1CCCCC1c1ccc(Cl)cc1Cl (stereo not drawn) [Example 76]	90%		100%	100%
3.87	Cn1nc(C(F)F)c(C(=O)N2CCCCC2c2ccc(Cl)cc2Cl)c1F (stereo not drawn) [Example 81]	100%	94%	100%	
3.67	CCc1nn(C)c(F)c1C(=O)N1CCCCC1c1cc(Cl)ccc1Cl (stereo not drawn) [Example 82]	95%	79%	90%	
3.96	Cc1cc(C(=O)N2CCCCC2c2ccccc2Br)c(C)o1 (stereo not drawn) [Example 86]	90%		90%	78%
3.25	CCc1nn(C)c(F)c1C(=O)N1CCCCC1c1ccccc1Br (stereo not drawn) [Example 87]	95%		100%	89%
3.39	Cn1nc(C(F)F)c(C(=O)N2CCCCC2c2ccccc2Br)c1F (stereo not drawn) [Example 91]	100%	95%	100%	

logP [1]	Structure (SMILES)	Efficacy (Alternaria solani)	Efficacy (Sphaerotheca fuliginea)	Efficacy (Pyrenophora teres)	Efficacy (Septoria tritici)
3.92	Cn1nc(C(F)F)c(C(=S)N2CCCCC2c2ccccc2Br)c1F (stereo not drawn) [Example 92]	95% and 100%	100%	100%	
3.51	Cn1nc(C(F)F)c(C(=O)N2CCCCC2c2cccc(Br)c2)c1F (stereo not drawn) [Example 97]	100%	96%	100%	
4.16	Cn1nc(C(F)F)c(C(=S)N2CCCCC2c2cccc(Br)c2)c1F (stereo not drawn) [Example 98]	100%	100%	100%	
3.99	Cn1nc(C(F)F)c(C(=O)N2CCCCC2c2cccc(Oc3ccccc3)c2)c1F (stereo not drawn) [Example 115]	100%	95%	100%	
3.58	CCc1nn(C)c(F)c1C(=O)N1CCCCC1c1ccc2ccccc2c1 (stereo not drawn) [Example 117]	95%		95%	90%
3.21	Cc1nn(C)c(F)c1C(=O)N1CCCCC1c1ccc2ccccc2c1 (stereo not drawn) [Example 118]	95%		100%	100%
3.69	Cn1nc(C(F)F)c(C(=O)N2CCCCC2c2ccc3ccccc3c2)c1F (stereo not drawn) [Example 122]	100%	94%	100%	
4.36	Cn1nc(C(F)F)c(C(=S)N2CCCCC2c2ccc3ccccc3c2)c1F (stereo not drawn) [Example 123]	90%	88%	100%	
3.67	CCc1noc(C)c1C(=O)N1CCCCC1c1ccc(Br)s1 (stereo not drawn) [Example 126]		95%		
3.39	CC(c1ccccc1)C1CCCCN1C(=O)c1c(C(F)F)nn(C)c1F (stereo not drawn) [Example 138]	100%	98%	100%	
4.14	CC(c1ccccc1)C1CCCCN1C(=S)c1c(C(F)F)nn(C)c1F (stereo not drawn) [Example 139]	95%	95%	100%	
3.11	Cn1nc(C(F)F)c(C(=O)N2CCCCC2Cc2ccc(F)cc2)c1F (stereo not drawn) [Example 156]	100%	75%	100%	
3.72	CC(c1ccccc1Cl)C1CCCCN1C(=O)c1c(C(F)F)nn(C)c1F (stereo not drawn) [Example 163]	100%	98%	100%	
4.53	CC(c1ccccc1Cl)C1CCCCN1C(=S)c1c(C(F)F)nn(C)c1F (stereo not drawn) [Example 166]	100%	100%	100%	
3.25	CCc1nn(C)c(F)c1C(=O)N1CCCCC1CCc1ccccc1 (stereo not drawn) [Example 176]	90%		95%	70%
3.92	Cn1nc(C(F)F)c(C(=O)N2CCCCC2CCOc2ccc3ccccc3c2)c1F (stereo not drawn) [Example 191]	100%		100%	
3.25	Cn1nc(C(F)F)c(C(=O)N2CCCCC2CCc2cccs2)c1F (stereo not drawn) [Example 194]	100%		100%	
3.74	Cn1nc(C(F)F)c(C(=O)N2CCCCC2CCOc2ccc(C(F)(F)F)cn2)c1Cl (stereo not drawn) [Example 195]	100%		95%	
3.57	Cn1nc(C(F)F)c(C(=O)N2CCCCC2CCOc2ccc(C(F)(F)F)cn2)c1F (stereo not drawn) [Example 196]	100%	70%	100%	
